Structures can show the parent of a compound that is named as a salt. Where two headings read alike, the source gives them in different places.
Legend:
NLRP3 inflammasome = test: IL-1β secretion assay in PMA-differentiated THP-1 cells, nigericin-activated (HTRF); type: cell-based
Protocol: 10 μL supernatant was removed, and IL-1p levels were monitored using an HTRF assay (CisBio, #621L1PEC) according to manufacturers' instructions. Viability and pyroptosis was monitored with the addition of PrestoBlue cell viability reagent (Life Technologies, #A13261) directly to the cell culture plate.
(§1) IC50 values were calculated from the plot of percentage of inhibition versus the inhibitor concentration by a logistics fit according to: y=A2+(A1−A2)/(1+(x/IC50)^p) where y is the %-inhibition at the inhibitor concentration, x. A1 is the lowest inhibition value, i.e. 0%, and A2 the maximum inhibition value, i.e. 100%. The exponent, p, is the Hill coefficient. The curve fitting was conducted with an internally developed software suite.
NLRP3-dependent IL-1β secretion was stimulated in PMA-differentiated THP-1 cells by the addition of nigericin, and cytokines were measured in the […] after 3 hours. As discussed above, activation of the NLRP3 inflammasome requires both an NF-kB-dependent priming step and the addition of a NLRP3 activator.

[1] = system: NF-kB-dependent TNF-α secretion; test: TNF-α secretion assay in THP-1 cells (counter screen, HTRF); type: cell-based; conditions: Pam3CSK4-stimulated, 3 hours
Protocol: Monocytic THP-1 cells were maintained according to providers' instructions in RPMI media as described above. […] Experimental compounds were prepared and added as described above. TNF-α secretion was triggered by the addition of either 1 μg/mL LPS (Sigma, #L4391) or 100 ng/mL Pam3CSK4 (Invivogen, #tlrl-pms) depending on the experiment, and cells were incubated for 3 hours. 10 μL supernatant was removed, and TNF-α levels were monitored using an HTRF assay (CisBio, #62TNFPEC) according to manufacturers' instructions. Viability was monitored as described above.
as §1, with “suite. […]” for “suite.”

[2] = Homo sapiens, 15 μM nigericin, 3 hours, read-out: IL-1β IC50

| SMILES | IC50 (NLRP3 inflammasome; [2]) [nM] | IC50 ([1]; Homo sapiens) [nM] | IC50 (NLRP3 inflammasome; read-out: IL-1β IC50, 15 μM nigericin, 3 hours) [nM] | IC50 [1] [nM] |
| --- | --- | --- | --- | --- |
| Cc1cc(N[C@H]2C[C@@](C)(O)C2)nnc1-c1ccc(C(F)(F)F)cc1O [Ex 55, 2-(6-(((cis)-3-Hydroxy-3-methylcyclobutyl)amino)-4-methylpyridazin-3-yl)-5-(trifluoromethyl)phenol] | 45.8 | 45000 |  |  |
| Cc1cc(N[C@H]2C[C@@](C)(O)C2)nnc1-c1ccc(OC(F)(F)F)cc1O [Ex 81, 2-(6-(((cis)-3-Hydroxy-3-methylcyclobutyl)amino)-4-methylpyridazin-3-yl)-5-(trifluoromethoxy)phenol] | 130 | > 100000 |  |  |
| Cc1cc(C(F)(F)F)cc(O)c1-c1ccc(NC[C@@H](O)C(C)C)nn1 [Ex 90a, (S)-2-(6-((2-Hydroxy-3-methylbutyl)amino)pyridazin-3-yl)-3-methyl-5-(trifluoromethyl)phenol] | 64.2 | > 33000 |  |  |
| Cc1cc(NCC(C)(C)O)nnc1-c1c(C)cc(C(F)(F)F)cc1O [Ex 73, 2-(6-((2-Hydroxy-2-methylpropyl)amino)-4-methylpyridazin-3-yl)-3-methyl-5-(trifluoromethyl)phenol] | 154 | 55000 |  |  |
| CCN1CCC[C@H]1CNc1ccc(-c2c(C)cc(C(F)(F)F)cc2O)nn1 [Ex 8, (S)-2-(6-(((1-Ethylpyrrolidin-2-yl)methyl)amino)pyridazin-3-yl)-3-methyl-5-(trifluoromethyl)phenol] | 24.1 | > 100000 |  |  |
| Cc1cc(C(F)(F)F)cc(O)c1-c1ccc(NCC2COCCN2C)nn1 (racemic) [Ex 77, (rac)-3-Methyl-2-(6-(((4-methylmorpholin-3-yl)methyl)amino)pyridazin-3-yl)-5-(trifluoromethyl)phenol] | 61.9 | > 100000 |  |  |
| Cc1cc(C(F)(F)F)cc(O)c1-c1ccc(N[C@@H]2CCC[C@H]2O)nn1 (relative stereo) [Ex 24, (trans)-2-(6-((2-Hydroxycyclopentyl)amino)pyridazin-3-yl)-3-methyl-5-(trifluoromethyl)phenol] | 120 | 37000 |  |  |
| Cc1cc(C(F)(F)F)cc(O)c1-c1ccc(N[C@@H]2CCCN3CCC[C@H]23)nn1 [Ex 83a, 3-Methyl-2-(6-(((8R,8aR)-octahydroindolizin-8-yl)amino)pyridazin-3-yl)-5-(trifluoromethyl) phenol] | 0.8 | > 100000 |  |  |
| Cc1cc(C(F)(F)F)cc(O)c1-c1cc(C(F)(F)F)c(N[C@H]2C[C@@](C)(O)C2)nn1 [Ex 56, 2-(6-(((cis)-3-Hydroxy-3-methylcyclobutyl)amino)-5-(trifluoromethyl)pyridazin-3-yl)-3-methyl-5-(trifluoromethyl)phenol] | 8.3 | > 100000 |  |  |
| Cc1cc(C(F)(F)F)cc(O)c1-c1ccc(NC[C@](C)(O)CO)nn1 [Ex 88a, (S)-3-((6-(2-Hydroxy-6-methyl-4-(trifluoromethyl)phenyl)pyridazin-3-yl)amino)-2-methylpropane-1,2-diol] | 62.3 | 41000 |  |  |
| CC(C)(O)CNc1ccc(-c2c(O)cc(C(F)(F)F)cc2Cl)nn1 [Ex 30, 3-Chloro-2-(6-((2-hydroxy-2-methylpropyl)amino)pyridazin-3-yl)-5-(trifluoromethyl)phenol] | 214 | > 100000 |  |  |
| Cc1ncccc1CNc1ccc(-c2c(O)cc(C(F)(F)F)cc2Cl)nn1 [Ex 34, 3-Chloro-2-(6-(((2-methylpyridin-3-yl)methyl)amino)pyridazin-3-yl)-5-(trifluoromethyl)phenol] | 496 | > 100000 |  |  |
| Cc1cc(C(F)(F)F)cc(O)c1-c1ccc(NCC(O)(C(F)(F)F)C(F)(F)F)nn1 [Ex 10, 3-Methyl-2-(6-((3,3,3-trifluoro-2-hydroxy-2-(trifluoromethyl)propyl)amino)pyridazin-3-yl)-5-(trifluoromethyl)phenol] | 349 | > 33000 |  |  |
| Cc1cc(C(F)(F)F)cc(O)c1-c1ccc(N[C@@H]2CC[C@@H](O)[C@H]2O)nn1 [Ex 89b, (1R,2S,3R)-3-((6-(2-Hydroxy-6-methyl-4-(trifluoromethyl)phenyl)pyridazin-3-yl)amino)cyclopentane-1,2-diol] | 182 | > 100000 |  |  |
| Cc1cc(C(F)(F)F)cc(O)c1-c1ccc(NC[C@@H]2C[C@H](F)CN2)nn1 [Ex 75, 2-(6-((((2S,4S)-4-Fluoropyrrolidin-2-yl)methyl)amino)pyridazin-3-yl)-3-methyl-5-(trifluoromethyl)phenol] | 18.3 | > 100000 |  |  |
| Cc1cc(C(F)(F)F)cc(O)c1-c1ccc(NC[C@H](O)C(C)C)nn1 [Ex 90b, (R)-2-(6-((2-Hydroxy-3-methylbutyl)amino)pyridazin-3-yl)-3-methyl-5-(trifluoromethyl) phenol] | 115 | > 100000 |  |  |
| Cc1cc(C(F)(F)F)cc(O)c1-c1ccc(N[C@H]2C[C@](O)(C(F)(F)F)C2)nn1 [Ex 67, 2-(6-(((cis)-3-Hydroxy-3-(trifluoromethyl)cyclobutyl)amino)pyridazin-3-yl)-3-methyl-5-(trifluoromethyl)phenol] | 40.1 | 46000 |  |  |
| Oc1cc(C(F)(F)F)cc(Cl)c1-c1ccc(N[C@H]2C[C@H](O)C2)nn1 [Ex 32, 3-Chloro-2-(6-((trans-3-hydroxycyclobutyl)amino)pyridazin-3-yl)-5-(trifluoromethyl)phenol] | 218 | 85000 |  |  |
| Cc1cc(C(F)(F)F)cc(O)c1-c1ccc(N[C@@H]2CCCN(C)C2=O)nn1 [Ex 59, (R)-3-((6-(2-Hydroxy-6-methyl-4-(trifluoromethyl)phenyl)pyridazin-3-yl)amino)-1-methylpiperidin-2-one] | 35.9 | > 100000 |  |  |
| Cc1cc(C(F)(F)F)cc(O)c1-c1ccc(N[C@@H]2CC[C@@H]3CC[C@H]2N3CCO)nn1 [Ex 86b, 2-(6-(((1R,2R,5R)-8-(2-Hydroxyethyl)-8-azabicyclo[3.2.1]octan-2-yl)amino)pyridazin-3-yl)-3-methyl-5-(trifluoromethyl)phenol] |  |  | 1.8 | > 100000 |
| Cc1cc(C)c(-c2ccc(NCCc3ccc(S(N)(=O)=O)cc3)nn2)c(O)c1 [Ex 103, 4-(2-((6-(2-Hydroxy-4,6-dimethylphenyl)pyridazin-3-yl)amino)ethyl)benzenesulfonamide] | 136 | 16000 |  |  |
| Cc1cc(C(F)(F)F)cc(O)c1-c1ccc(NC2(C)CCCN(C)C2)nn1 (stereo not drawn) [Ex 52, 2-(6-((1,3-Dimethylpiperidin-3-yl)amino)pyridazin-3-yl)-3-methyl-5-(trifluoromethyl)phenol TFA-salt] | 186 | > 100000 |  |  |
| C[C@]1(O)C[C@@H](Nc2cc(C(F)(F)F)c(-c3ccc(Cl)cc3O)nn2)C1 [Ex 69, 5-Chloro-2-(6-(((cis)-3-hydroxy-3-methylcyclobutyl)amino)-4-(trifluoromethyl)pyridazin-3-yl)phenol] | 431 | > 33000 |  |  |
| Cc1cc(C(F)(F)F)cc(O)c1-c1ccc(NC[C@@H]2C[C@@H](F)CN2)nn1 [Ex 76, 2-(6-((((2S,4R)-4-Fluoropyrrolidin-2-yl)methyl)amino)pyridazin-3-yl)-3-methyl-5-(trifluoromethyl)phenol] | 89.7 | > 100000 |  |  |
| Cc1cc(-c2c(C)cc(C(F)(F)F)cc2O)nnc1N[C@@H]1CCCN(C)C1=O [Ex 102, (R)-3-((6-(2-Hydroxy-6-methyl-4-(trifluoromethyl)phenyl)-4-methylpyridazin-3-yl)amino)-1-methylpiperidin-2-one] | 49 |  |  |  |
| Cc1cc(C(F)(F)F)cc(O)c1-c1ccc(N[C@H]2CC[C@@H](CO)N(C)C2)nn1 [Ex 87b, 2-(6-(((3S,6S)-6-(Hydroxymethyl)-1-methylpiperidin-3-yl)amino)pyridazin-3-yl)-3-methyl-5-(trifluoromethyl)phenol] |  | 77000 |  |  |
| Cc1cc(C(F)(F)F)cc(O)c1-c1ccc(N[C@@H]2CCCN(C[C@H](C)O)C2)nn1 [Ex 92a, 2-(6-(((R)-1-((S)-2-Hydroxypropyl)piperidin-3-yl)amino)pyridazin-3-yl)-3-methyl-5-(trifluoromethyl)phenol] |  | > 100000 |  |  |
| Cc1cc(N[C@@H]2CCCN(C)C2)nnc1-c1ccc(C(F)(F)F)cc1O [Ex 4, (R)-2-(4-Methyl-6-((1-methylpiperidin-3-yl)amino)pyridazin-3-yl)-5-(trifluoromethyl)phenol] |  | > 100000 |  |  |
| Cc1cc(C(F)(F)F)cc(O)c1-c1ccc(N[C@@H]2CCCN(CCO)C2)nn1 [Ex 6, (R)-2-(6-((1-(2-Hydroxyethyl)piperidin-3-yl)amino)pyridazin-3-yl)-3-methyl-5-(trifluoromethyl)phenol] |  | > 100000 |  |  |
| CN1CCC[C@@H](Nc2ccc(-c3c(O)cc(C(F)(F)F)cc3C(F)(F)F)nn2)C1 [Ex 39, (R)-2-(6-((1-Methylpiperidin-3-yl)amino)pyridazin-3-yl)-3,5-bis(trifluoromethyl)phenol] |  | > 100000 |  |  |

From patent publication US11208399B2, “NLRP3 inflammasome inhibitors” (Novartis AG, priority 2019, dated 2021)
